ChEMBL document CHEMBL1221402, “Bioactivity-guided isolation of 1,2,3,4,6-Penta-O-galloyl-D-glucopyranose from Paeonia lactiflora roots as a PTP1B inhibitor” (J Nat Prod, 2010)
The source made the active and inactive calls. The rule behind the calls is not given here.

How the values were obtained:
[1] = target: T1, Tyrosine-protein phosphatase non-receptor type 1 (Homo sapiens, UniProt P18031); test: Inhibition of human recombinant PTP1B
T1 sequence (P18031 whole entry): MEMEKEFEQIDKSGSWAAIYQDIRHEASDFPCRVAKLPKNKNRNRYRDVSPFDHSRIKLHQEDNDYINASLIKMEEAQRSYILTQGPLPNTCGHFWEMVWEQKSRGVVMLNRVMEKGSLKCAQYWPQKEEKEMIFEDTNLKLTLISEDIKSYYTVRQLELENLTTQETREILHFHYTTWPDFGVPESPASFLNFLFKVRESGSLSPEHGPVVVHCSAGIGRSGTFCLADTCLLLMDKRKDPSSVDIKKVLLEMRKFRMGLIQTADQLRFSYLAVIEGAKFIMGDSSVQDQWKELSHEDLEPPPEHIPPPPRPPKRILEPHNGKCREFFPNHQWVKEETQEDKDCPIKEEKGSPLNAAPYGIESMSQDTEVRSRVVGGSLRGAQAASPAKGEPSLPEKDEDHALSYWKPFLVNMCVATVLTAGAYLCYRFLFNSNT

[2] = target: T2, Tyrosine-protein phosphatase non-receptor type 11 (Homo sapiens) (UniProt Q06124); test: Inhibition of SHP-2 at <50 uM
T2 sequence (whole entry): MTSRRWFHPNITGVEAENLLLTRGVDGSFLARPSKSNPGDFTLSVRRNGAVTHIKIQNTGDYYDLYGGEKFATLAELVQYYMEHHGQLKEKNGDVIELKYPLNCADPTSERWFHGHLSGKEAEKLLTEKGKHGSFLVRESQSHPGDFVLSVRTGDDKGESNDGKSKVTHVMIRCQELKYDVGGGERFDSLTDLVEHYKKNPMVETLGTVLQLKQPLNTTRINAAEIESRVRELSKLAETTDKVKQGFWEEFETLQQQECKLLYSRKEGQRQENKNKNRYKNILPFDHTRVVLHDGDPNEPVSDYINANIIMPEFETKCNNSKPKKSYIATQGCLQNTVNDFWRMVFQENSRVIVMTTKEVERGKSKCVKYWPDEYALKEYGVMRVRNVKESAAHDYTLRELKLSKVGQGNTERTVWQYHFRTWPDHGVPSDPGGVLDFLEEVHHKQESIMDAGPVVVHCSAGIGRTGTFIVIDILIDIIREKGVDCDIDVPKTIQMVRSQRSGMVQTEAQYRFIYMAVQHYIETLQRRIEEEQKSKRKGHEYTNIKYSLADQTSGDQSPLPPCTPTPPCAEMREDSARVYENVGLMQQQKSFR

[3] = target: Receptor-type tyrosine-protein phosphatase F (Homo sapiens) (UniProt P10586); test: Inhibition of LAR at <50 uM
[4] = target: T3, Tyrosine-protein phosphatase non-receptor type 2 (Homo sapiens, UniProt P17706); test: Inhibition of TCPTP
T3 sequence (P17706 whole entry): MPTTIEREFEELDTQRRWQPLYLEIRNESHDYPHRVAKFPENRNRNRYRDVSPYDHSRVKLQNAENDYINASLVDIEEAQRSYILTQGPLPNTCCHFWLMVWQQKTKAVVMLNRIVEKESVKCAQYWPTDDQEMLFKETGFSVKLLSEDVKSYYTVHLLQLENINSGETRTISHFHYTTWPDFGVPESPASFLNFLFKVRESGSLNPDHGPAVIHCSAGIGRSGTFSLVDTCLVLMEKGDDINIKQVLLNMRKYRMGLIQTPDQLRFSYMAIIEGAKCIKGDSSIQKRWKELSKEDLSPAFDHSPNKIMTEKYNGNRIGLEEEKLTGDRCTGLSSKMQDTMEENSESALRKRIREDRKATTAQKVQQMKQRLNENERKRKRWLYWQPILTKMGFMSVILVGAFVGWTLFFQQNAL

[5] = target: Insulin receptor (Homo sapiens) (UniProt P06213); test: Induction of IR phosphorylation in insulin-stimulated starved human HCC-1.2 cells at 10 uM pretreated 2 hrs before insulin challenge by Western blot analysis
Chain of Insulin receptor (Homo sapiens) (P06213 28-758 limits assumed): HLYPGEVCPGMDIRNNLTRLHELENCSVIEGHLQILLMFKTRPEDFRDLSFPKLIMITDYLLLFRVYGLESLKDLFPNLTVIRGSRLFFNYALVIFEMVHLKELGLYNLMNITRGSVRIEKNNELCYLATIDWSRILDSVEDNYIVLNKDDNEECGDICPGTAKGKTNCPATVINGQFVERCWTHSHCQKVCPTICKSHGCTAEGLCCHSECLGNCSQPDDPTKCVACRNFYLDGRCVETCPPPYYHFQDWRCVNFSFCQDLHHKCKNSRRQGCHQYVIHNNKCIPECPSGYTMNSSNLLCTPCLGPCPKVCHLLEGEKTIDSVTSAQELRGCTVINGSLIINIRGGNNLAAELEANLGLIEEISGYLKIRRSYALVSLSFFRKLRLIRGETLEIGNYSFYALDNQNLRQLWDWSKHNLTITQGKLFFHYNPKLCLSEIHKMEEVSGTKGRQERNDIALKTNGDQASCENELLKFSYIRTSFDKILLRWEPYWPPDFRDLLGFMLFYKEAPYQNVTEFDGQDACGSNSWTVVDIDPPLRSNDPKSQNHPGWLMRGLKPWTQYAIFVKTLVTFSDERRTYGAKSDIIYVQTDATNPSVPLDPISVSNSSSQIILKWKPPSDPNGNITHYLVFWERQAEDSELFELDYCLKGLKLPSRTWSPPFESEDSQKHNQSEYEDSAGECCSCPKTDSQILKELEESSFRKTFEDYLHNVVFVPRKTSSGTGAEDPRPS
Chain of Insulin receptor (Homo sapiens) (P06213 763-1382 limits assumed): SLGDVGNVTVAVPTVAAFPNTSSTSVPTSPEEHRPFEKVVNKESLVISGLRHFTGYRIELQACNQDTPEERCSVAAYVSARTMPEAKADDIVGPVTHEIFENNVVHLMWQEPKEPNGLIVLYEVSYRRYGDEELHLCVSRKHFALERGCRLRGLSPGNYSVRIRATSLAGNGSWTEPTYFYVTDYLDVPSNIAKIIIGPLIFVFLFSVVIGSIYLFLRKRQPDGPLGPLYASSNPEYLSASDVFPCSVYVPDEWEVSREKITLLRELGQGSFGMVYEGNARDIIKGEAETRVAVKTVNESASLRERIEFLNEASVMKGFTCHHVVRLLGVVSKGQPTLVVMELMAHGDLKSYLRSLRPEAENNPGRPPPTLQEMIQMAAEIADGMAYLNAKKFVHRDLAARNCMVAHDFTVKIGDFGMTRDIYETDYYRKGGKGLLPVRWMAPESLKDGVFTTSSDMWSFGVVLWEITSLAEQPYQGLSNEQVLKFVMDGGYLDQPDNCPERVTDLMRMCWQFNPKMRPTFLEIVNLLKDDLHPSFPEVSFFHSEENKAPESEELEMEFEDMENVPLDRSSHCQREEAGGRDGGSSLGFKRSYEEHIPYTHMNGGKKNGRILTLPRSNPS

Chain of Receptor-type tyrosine-protein phosphatase F (Homo sapiens) (P10586 whole entry): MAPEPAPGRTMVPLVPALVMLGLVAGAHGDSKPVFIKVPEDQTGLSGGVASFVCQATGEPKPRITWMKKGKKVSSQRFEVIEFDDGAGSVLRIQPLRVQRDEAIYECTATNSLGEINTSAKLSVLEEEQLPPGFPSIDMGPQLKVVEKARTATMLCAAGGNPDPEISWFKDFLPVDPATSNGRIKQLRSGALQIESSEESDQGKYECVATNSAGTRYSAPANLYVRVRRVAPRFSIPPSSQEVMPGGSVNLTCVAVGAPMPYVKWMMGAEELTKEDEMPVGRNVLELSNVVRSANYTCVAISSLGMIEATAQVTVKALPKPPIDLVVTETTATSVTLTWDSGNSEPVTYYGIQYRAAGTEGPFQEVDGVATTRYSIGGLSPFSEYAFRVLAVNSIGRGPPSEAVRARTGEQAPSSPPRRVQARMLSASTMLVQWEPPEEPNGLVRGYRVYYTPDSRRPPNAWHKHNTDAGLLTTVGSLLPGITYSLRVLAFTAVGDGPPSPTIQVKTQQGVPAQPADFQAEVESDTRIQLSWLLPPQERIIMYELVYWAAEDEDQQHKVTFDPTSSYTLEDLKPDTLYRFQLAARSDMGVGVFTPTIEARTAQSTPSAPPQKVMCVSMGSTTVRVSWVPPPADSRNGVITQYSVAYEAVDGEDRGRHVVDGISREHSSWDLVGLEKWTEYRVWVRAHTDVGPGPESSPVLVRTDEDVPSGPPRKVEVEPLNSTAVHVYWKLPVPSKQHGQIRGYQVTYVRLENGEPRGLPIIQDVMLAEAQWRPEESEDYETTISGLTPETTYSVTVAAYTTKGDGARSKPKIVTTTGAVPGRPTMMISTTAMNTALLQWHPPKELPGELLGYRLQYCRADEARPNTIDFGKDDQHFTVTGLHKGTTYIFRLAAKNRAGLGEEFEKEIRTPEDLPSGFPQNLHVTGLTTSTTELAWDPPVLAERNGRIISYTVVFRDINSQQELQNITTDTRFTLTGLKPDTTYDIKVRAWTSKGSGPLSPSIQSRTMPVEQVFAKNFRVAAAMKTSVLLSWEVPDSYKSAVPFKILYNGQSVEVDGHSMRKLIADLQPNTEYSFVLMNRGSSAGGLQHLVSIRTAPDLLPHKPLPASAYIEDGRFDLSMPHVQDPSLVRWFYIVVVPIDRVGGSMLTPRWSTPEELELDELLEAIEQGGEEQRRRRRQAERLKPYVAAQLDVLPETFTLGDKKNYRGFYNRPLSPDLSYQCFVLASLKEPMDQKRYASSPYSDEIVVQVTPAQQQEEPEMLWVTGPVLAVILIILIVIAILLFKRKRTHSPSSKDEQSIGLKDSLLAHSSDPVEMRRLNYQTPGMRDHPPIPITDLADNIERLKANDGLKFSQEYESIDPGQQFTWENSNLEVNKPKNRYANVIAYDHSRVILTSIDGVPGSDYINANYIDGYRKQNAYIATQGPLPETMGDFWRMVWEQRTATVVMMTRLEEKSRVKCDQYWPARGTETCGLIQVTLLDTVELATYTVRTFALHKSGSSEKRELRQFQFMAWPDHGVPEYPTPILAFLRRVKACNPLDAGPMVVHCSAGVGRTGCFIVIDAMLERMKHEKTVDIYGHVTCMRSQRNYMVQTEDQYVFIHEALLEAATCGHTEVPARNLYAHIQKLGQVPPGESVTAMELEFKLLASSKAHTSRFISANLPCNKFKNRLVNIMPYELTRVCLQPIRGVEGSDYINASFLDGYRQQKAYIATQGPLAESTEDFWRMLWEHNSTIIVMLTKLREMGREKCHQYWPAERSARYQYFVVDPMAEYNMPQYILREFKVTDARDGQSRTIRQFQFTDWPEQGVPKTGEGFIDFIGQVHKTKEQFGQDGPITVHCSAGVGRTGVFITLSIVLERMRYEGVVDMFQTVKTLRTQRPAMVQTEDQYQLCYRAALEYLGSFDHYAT

SMILES: O=C(OC[C@H]1O[C@H](OC(=O)c2cc(O)c(O)c(O)c2)[C@H](OC(=O)c2cc(O)c(O)c(O)c2)[C@@H](OC(=O)c2cc(O)c(O)c(O)c2)[C@@H]1OC(=O)c1cc(O)c(O)c(O)c1)c1cc(O)c(O)c(O)c1
- IC50 [1]: 4800 nM
- inhibition [2]: inactive
- inhibition [3]: inactive
- IC50 [4]: 70 nM
- Activity [5]: Active
